Laboratory results: US20230103644A1, “TREATMENT OF EPILEPSY” (Katholieke Universiteit Leuven, priority 2020, published 2023)
Entries after “also recorded” stand apart in the source; their conditions may differ.

Legend:
human Phgdh = target: T1, human Phgdh (Homo sapiens, UniProt O43175); experiment: Phgdh activity assay (colorimetric kit, NADH at 450 nm); type: biochemical; details: for Phgdh activation (in words): 25 μM compound
T1 construct: purchased BPS bioscience 71079
T1 sequence (O43175 1-533): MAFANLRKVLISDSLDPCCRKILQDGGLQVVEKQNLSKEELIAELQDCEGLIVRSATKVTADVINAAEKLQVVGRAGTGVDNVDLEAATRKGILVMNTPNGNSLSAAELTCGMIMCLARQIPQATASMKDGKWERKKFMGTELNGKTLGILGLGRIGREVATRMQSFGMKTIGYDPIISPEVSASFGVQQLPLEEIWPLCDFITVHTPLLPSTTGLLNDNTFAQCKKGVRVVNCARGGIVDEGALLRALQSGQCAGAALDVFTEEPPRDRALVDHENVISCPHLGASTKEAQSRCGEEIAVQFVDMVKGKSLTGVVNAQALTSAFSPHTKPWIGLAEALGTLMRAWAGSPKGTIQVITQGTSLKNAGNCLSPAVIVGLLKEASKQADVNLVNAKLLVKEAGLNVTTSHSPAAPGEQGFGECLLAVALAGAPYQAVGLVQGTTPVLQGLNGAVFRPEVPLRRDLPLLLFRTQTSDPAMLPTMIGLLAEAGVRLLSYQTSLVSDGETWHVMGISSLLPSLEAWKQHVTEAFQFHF
Experimental: Phgdh enzyme activity upon drug treatment was tested using human Phgdh (BPS bioscience, 71079) and a specific colorimetric Phgdh activity kit (Biovision, K569). The Phgdh inhibitor Disulfiram [Spillier et al. (2019) Sci Rep. 9, 4737], served as […].
Briefly, Human Phgdh enzyme was diluted in assay buffer at a concentration of 0.38 mg/mL. Next, 5 μl of this Phgdh enzyme solution and 5 μL of the compounds in 5% DMSO and assay buffer was added (to wells of flat bottom 96-well plate). Subsequently, 40 μl Phgdh assay buffer (Biovision) and 50 μl Phgdh reaction mix (prepared as described in the protocol of the Phgdh assay kit K569, Biovision) was added. The final amount of enzyme per reaction was 0.35 μM. Afterwards, absorbance at 450 nm, indicative for the amount of NADH generated, was measured over time. NADH is one of the end products of the reaction. In between measurements, the plate was incubated at 37° C., protected from light.

[1] = system: EKP induced seizures in zebrafish larvae; experiment: Zebrafish drug resistant epilepsy model: ethyl ketopentenoate (EKP), locomotor tracking; type: in vivo; details: for activity after EKP exposure (locomotor activity relative to EKP only): 1 μM compound, 300 μM EKP, 30 min recording; for effect on EKP induced seizures (locomotor activity, actinteg units): 7 dpf larvae, compound at MTC (CQ 3 μM, CH 3.125 μM, PBT-1033 6 μM) 2 h before 300 μM EKP
Experimental: Larvae (7 dpf) in 100 μl VHC were arrayed individually in a 96-well plate (tissue culture plate, at bottom, Falcon, USA) and kept in the light at 28° C. Two-hours before tracking compound (clioquinol (CQ), chloroxine (CH), PBT-1033) and/or inhibitor (disulfiram (DS), CBR) was added at their MTC to the larvae and afterwards the 96-well plates were placed in darkness at 28° C. for 2 hours. Just prior to tracking 100 µl of VHC or EKP stock solution was added to each well to obtain a EKP concentration of 300 μM. The plates were placed in an automated video tracking device (ZebraBox™ apparatus; Viewpoint, Lyon, France) and the locomotor behavior of the larvae was monitored for 40 min in the dark at 28° C. Locomotor activity was quantified using ZebraLab™ software (Viewpoint, Lyon, France) and expressed in “actinteg” units per 5-min interval. For each larvae, 30 min of tracking data after the effect of EKP was initiated was used. The actinteg value is defined as the sum of all image pixel changes detected during the time window.
Locomotor activity was quantified using ZebraLab™ software (Viewpoint, Lyon, France) and expressed in mean “actinteg” units per 5-min+/−SEM during a 30 min recording interval relative to EKP only. Statistical analysis: one-way ANOVA with Dunnett's multiple comparison test. A statistical difference is indicated by: ****p<0.0001. For each condition n=10 larvae were used and the experiment was performed two times (n total=20 per condition).

Scn1Lab mutant larvae = experiment: Zebrafish model of Dravet syndrome, locomotor behavioural assay; type: in vivo; details: 6 dpf larvae, MTC concentration in 0.1% DMSO, 2 h incubation, normalized to VHC-treated mutants
Experimental: 6 dpf Scn1Lab mutant larvae (selected by their darker appearance, lack of a swim bladder and slight curvature of the body on 6 dpf) and WT larvae were arrayed in a 96-well plate (one larva per well) and treated with 100 μl VHC (0.1% DMSO) or compound (MTC concentration in 0.1% DMSO). After incubation at 28° C. on a 14/10 h light/dark cycle for 2 h, the plates were immediately placed in an enclosed tracking device (ZebraBox Viewpoint, France) and chamber habituation for 30 min. The locomotor activity of the larvae were evaluated during 10 min under dark conditions and quantified by the lardist parameter (total distance in large movements) and plotted in cm (ZebraLab™ software, Viewpoint, Lyon, France). Data was collected from 3-4 larvae per treatment condition. The locomotor data were analysed by normalizing the locomotor activity of treated larvae against VHC-treated Scn1Lab mutant larvae.

[2] = system: cAMP-transporting ABC pumps; details: possible targets ABCC4 and ABCC11; cited from earlier work
[3] = system: 6-Hz (44 mA) psychomotor seizures in NMRI mice; experiment: Mouse 6-Hz (44 mA) psychomotor seizure model; type: in vivo; details: i.p. injection 60 min before corneal stimulation
Experimental: Male NMRI mice (weight 25-30 g) were acquired from Charles River Laboratories (France) and housed in polyacrylic cages under a 14/10-hour light/dark cycle at 21° C. The animals were fed a pellet diet and water ad libitum, and were allowed to acclimate for 1 week before experimental procedures were conducted. Prior to the experiment, mice were isolated in polyacrylic cages with a pellet diet and water ad libitum for habituation overnight in the experimental room, to minimize stress. The antiseizure activity of compounds was investigated in the mouse 6-Hz (44 mA) psychomotor seizure model as described before [Copmans et al (2018) ACS Chem Neurosci. 9, 1652-1662.]. In brief, 500 μl (injection volume was adjusted to the individual weight) of VHC (0.5% sodiumcarboxymethylcellulose (NaCMC)/Tween80 in 0.9% NaCl) or treatment (valproate or clioquinol dissolved in VHC) was i.p. injected in NMRI mice and after 60 min psychomotor seizures were induced by corneal electrical stimulation (6 Hz, 0.2 ms rectangular pulse width, 3 s duration, 44 mA) using an ECT Unit 5780 (Ugo Basile, Comerio, Italy). Seizure durations were measured during the experiment by experienced researchers, familiar with the different seizure behaviours. In addition, seizure durations were determined by blinded video analysis to confirm or correct the initial observations. Data are expressed as mean±SD.

[4] = cited from earlier work
[5] = cited from earlier work; remark: listed apart in the source
[6] = cited from earlier work; remark: listed apart in the source

**Q.** With `O=C(O)c1cc(O)c2ccc(Cl)cc2n1` [7-chloro-kynurenic acid] as the molecule, how does the “Phgdh activation (in words)” value (human Phgdh) read?
**A.** could not activate Phgdh; also recorded: no induced activation of PHGDH

**Q.** What about the “activity after EKP exposure (locomotor activity relative to EKP only)” value [1] of the same molecule?
**A.** not Active

**Q.** Which “Phgdh activation (in words)” value (human Phgdh) does the source give for `O=C(Oc1cccc2cccnc12)c1ccccc1` [benzoxyquine] here?
**A.** could not activate Phgdh

**Q.** Which results are given for `Oc1c(Cl)cc(Cl)c2cccnc12` [chloroxine]?
**A.** reduction of epileptiform locomotor activity of Scn1Lab mutant group (Scn1Lab mutant larvae): > 60%; effect on EKP induced seizures (locomotor activity, actinteg units) [1]: significantly reduced EKP induced seizures

**Q.** For `Oc1c(I)cc(Cl)c2cccnc12` [clioquinol], which “effect on cAMP-transporting ABC pumps” value [2] is on record?
**A.** inhibits

**Q.** And the “effect on the oxido-reduction reaction toward NADH generation” value (human Phgdh; compound itself, data not shown)?
**A.** does not affect

**Q.** What about the seizure duration [3] of the same molecule?
**A.** trend towards reduced seizure duration

**Q.** And the “dose that did not produce toxicity in animals” value ([4]; animals, over 30 days, in all but one study)?
**A.** 100 mg/(kg day)

**Q.** And the “dose with toxicity observed in a week” value ([4]; dogs, in a week)?
**A.** 400 mg/(kg day)

**Q.** What about the “dose with neurological toxicity in dogs” value ([4]; dogs, treated for over a month) of the same molecule?
**A.** exceeding 200 mg/(kg day)

**Q.** What about the “dose with no apparent adverse effects” value ([5]; Alzheimer clinical trial, for weeks (10 mg/kg/day)) of the same molecule?
**A.** 750 mg/day

**Q.** And the “dose with dose-limiting neurotoxicity and abdominal pain” value ([5]; humans (42.5 mg/kg/day))?
**A.** 3200 mg/day

**Q.** And the “dose received by patients without toxicity” value ([5]; humans, per day (~50 mg/(kg day)))?
**A.** 3.5 g

**Q.** And the “dose/concentration ratio in humans” value ([6]; doses of 250 or 500 mg)?
**A.** 0.64-1.4

**Q.** What about the “concentrations of free clioquinol in humans relative to hamsters (mean)” value ([6]; in vivo) of the same molecule?
**A.** 33 times

**Q.** What about the “activity after EKP exposure (locomotor activity relative to EKP only)” value [1] of the same molecule?
**A.** superior activity

**Q.** And the “effect on EKP induced seizures (locomotor activity, actinteg units)” value [1]?
**A.** significantly reduced EKP induced seizures

**Q.** For `Oc1ccc(Cl)c2cccnc12` [cloxyquin, 5-Chloro-8-quinolinol], which “Phgdh activation (in words)” value (human Phgdh) is on record?
**A.** activity comparable to clioquinol
